ChEMBL document CHEMBL1201862, “PubChem BioAssay data set” (2004)
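Tested at 5 concentrations; 48 h exposure; 96-well plates; endpoints linearly interpolated, else capped at highest concentration. GI50 marks 50% less growth.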 Active and inactive are the calls of the source. No stated cut-off is given here; in the data, active = GI50 up to about 1.1 µM and inactive = higher.

How the values were obtained:
Experiment in all cases: inhibition of tumour cell growth, NCI panel, 48 h
SNB-75 = tested on: SNB-75
SK-MEL-28 = tested on: SK-MEL-28
TK-10 = tested on: TK-10
COLO 205 = tested on: COLO 205
NCI-H226 = tested on: NCI-H226
OVCAR-4 = tested on: OVCAR-4
Hs-578T = tested on: Hs-578T
RXF 393 = tested on: RXF 393
SF-539 = tested on: SF-539
SF-295 = tested on: SF-295
T47D = tested on: T47D
A498 = tested on: A498
HOP-92 = tested on: HOP-92
UACC-62 = tested on: UACC-62
MOLT-4 = tested on: MOLT-4
KM12 = tested on: KM12
LOX IMVI = tested on: LOX IMVI
HT-29 = tested on: HT-29
A549 = tested on: A549
SW-620 = tested on: SW-620

CN(NC(=O)c1ccc(Cl)cc1)C1=NCCCCN1
GI50 (SNB-75): > 100 µM (inactive)
GI50 (SK-MEL-28): > 100 µM (inactive)
GI50 (TK-10): > 100 µM (inactive)
GI50 (COLO 205): > 100 µM (inactive)
GI50 (NCI-H226): > 100 µM (inactive)
GI50 (OVCAR-4): > 100 µM (inactive)
GI50 (Hs-578T): > 100 µM (inactive)
GI50 (RXF 393): > 100 µM (inactive)
GI50 (SF-539): > 100 µM (inactive)
GI50 (SF-295): > 100 µM (inactive)
GI50 (T47D): > 100 µM (inactive)
GI50 (A498): > 100 µM (inactive)
GI50 (HOP-92): > 100 µM (inactive)
GI50 (UACC-62): > 100 µM (inactive)
GI50 (MOLT-4): > 100 µM (inactive)
GI50 (KM12): > 100 µM (inactive)
GI50 (LOX IMVI): > 100 µM (inactive)
GI50 (HT-29): > 100 µM (inactive)
GI50 (A549): > 100 µM (inactive)
GI50 (SW-620): > 100 µM (inactive)

COC(=O)C1(C)OC(C)=NC1(C(=O)OC)C(=O)OC (centres undefined)
GI50 (SNB-75): > 100 µM (inactive)
GI50 (SK-MEL-28): > 100 µM (inactive)
GI50 (TK-10): > 100 µM (inactive)
GI50 (COLO 205): > 100 µM (inactive)
GI50 (NCI-H226): > 100 µM (inactive)
GI50 (OVCAR-4): > 100 µM (inactive)
GI50 (Hs-578T): > 100 µM (inactive)
GI50 (RXF 393): > 100 µM (inactive)
GI50 (SF-539): > 100 µM (inactive)
GI50 (SF-295): > 100 µM (inactive)
GI50 (T47D): > 100 µM (inactive)
GI50 (A498): > 100 µM (inactive)
GI50 (HOP-92): 1.45 µM (inactive)
GI50 (UACC-62): > 100 µM (inactive)
GI50 (MOLT-4): > 100 µM (inactive)
GI50 (KM12): > 100 µM (inactive)
GI50 (LOX IMVI): > 100 µM (inactive)
GI50 (HT-29): > 100 µM (inactive)
GI50 (A549): > 100 µM (inactive)
GI50 (SW-620): > 100 µM (inactive)

COCCOCCOCCOc1ccc(C(C#N)N(CCc2ccccc2)C(=O)c2cc(C(=O)N(CCc3ccccc3)C(C#N)c3ccc(OCCOCCOCCOC)cc3)cc(C(=O)N(CCc3ccccc3)C(C#N)c3ccc(OCCOCCOCCOC)cc3)c2)cc1 (centres undefined)
GI50 (SNB-75): > 100 µM (inactive)
GI50 (SK-MEL-28): > 100 µM (inactive)
GI50 (TK-10): > 100 µM (inactive)
GI50 (COLO 205): > 100 µM (inactive)
GI50 (NCI-H226): > 100 µM (inactive)
GI50 (OVCAR-4): > 100 µM (inactive)
GI50 (Hs-578T): 54.3 µM (inactive)
GI50 (RXF 393): > 100 µM (inactive)
GI50 (SF-539): > 100 µM (inactive)
GI50 (SF-295): > 100 µM (inactive)
GI50 (T47D): > 100 µM (inactive)
GI50 (A498): > 100 µM (inactive)
GI50 (HOP-92): 85.7 µM (inactive)
GI50 (UACC-62): > 100 µM (inactive)
GI50 (MOLT-4): > 100 µM (inactive)
GI50 (KM12): > 100 µM (inactive)
GI50 (LOX IMVI): > 100 µM (inactive)
GI50 (HT-29): > 100 µM (inactive)
GI50 (A549): > 100 µM (inactive)
GI50 (SW-620): > 100 µM (inactive)

O=C1C(S(=O)(=O)c2ccccc2)=C(CS(=O)(=O)c2ccccc2)[C@@H](OCc2ccccc2)[C@@H]1OCc1ccccc1
GI50 (SNB-75): > 100 µM (inactive)
GI50 (SK-MEL-28): 18.1 µM (inactive)
GI50 (TK-10): 31.8 µM (inactive)
GI50 (COLO 205): 25.8 µM (inactive)
GI50 (NCI-H226): 17.6 µM (inactive)
GI50 (OVCAR-4): 20.7 µM (inactive)
GI50 (Hs-578T): 23 µM (inactive)
GI50 (RXF 393): 13.9 µM (inactive)
GI50 (SF-539): 19.2 µM (inactive)
GI50 (SF-295): 18.7 µM (inactive)
GI50 (T47D): 32.7 µM (inactive)
GI50 (A498): 23.3 µM (inactive)
GI50 (HOP-92): 12.4 µM (inactive)
GI50 (UACC-62): 17.3 µM (inactive)
GI50 (MOLT-4): 16.9 µM (inactive)
GI50 (KM12): 0.0519 µM (active)
GI50 (LOX IMVI): 15.8 µM (inactive)
GI50 (HT-29): 13.5 µM (inactive)
GI50 (A549): 27.7 µM (inactive)
GI50 (SW-620): 18.7 µM (inactive)

CC1(C)CCCOc2cccc(c2)OCCCC(C)(C)C1=O
GI50 (SNB-75): 30.8 µM (inactive)
GI50 (SK-MEL-28): 38.5 µM (inactive)
GI50 (TK-10): > 100 µM (inactive)
GI50 (COLO 205): 49.3 µM (inactive)
GI50 (NCI-H226): 25.5 µM (inactive)
GI50 (OVCAR-4): 27.5 µM (inactive)
GI50 (Hs-578T): 39.7 µM (inactive)
GI50 (RXF 393): 17.7 µM (inactive)
GI50 (SF-539): 86.5 µM (inactive)
GI50 (T47D): 31.8 µM (inactive)
GI50 (A498): 66.2 µM (inactive)
GI50 (HOP-92): 23 µM (inactive)
GI50 (UACC-62): 19.1 µM (inactive)
GI50 (MOLT-4): 12.8 µM (inactive)
GI50 (KM12): 26 µM (inactive)
GI50 (LOX IMVI): 20.7 µM (inactive)
GI50 (HT-29): 19.8 µM (inactive)
GI50 (A549): 31.7 µM (inactive)
GI50 (SW-620): 27 µM (inactive)
